Measurements reported in US11413278B2, “Compounds and methods for promoting stress resistance” (priority 2015, dated 2022).
Entries after “also recorded” stand apart in the source; their conditions may differ. Read-outs that look alike come from different tables or passages of the source.

What was measured:
Format in all cases: cell-based, human
mTOR = mTOR inhibition (RPS6 phosphorylation status), In-Cell Western
Summary of the method: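 Read-out is In-Cell Western near-infrared imaging of phospho-RPS6 (Ser-235/236) against total RPS6, using overnight 4° C primary staining and DyLight 680/800 secondaries. Compounds were given to WI-38 cells for 24 hrs at three doses: 5, 10 and 20 μM.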

NRF2 = assay: in vitro; settings: for NRF2-dependency for H2O2-resistance, at 10 uM - with H2O2, 1st experiment: experiment 1 (1st); for NRF2-dependency for H2O2-resistance, at 10 uM - with H2O2, 2nd experiment: experiment 2 (2nd); for NRF2-dependency for H2O2-resistance, 1st experiment / NRF2-dependency for H2O2-resistance, 2nd experiment: with H2O2, NRF2 knockdown in WI-38 cells; for Assay 17: NRF2-dependency for H2O2-resistance: YES/NO; for NRF2-dependency of H2O2-resistance (NRF2 siRNA knockdown): at least 2 of 3 independent experiments
FOXO3 = assay: qPCR analysis of FOXO3-regulated genes; settings: for Induction of at least two of five FOXO3-regulated genes (SOD2, GADD45A, CAT, DDB1, TXNIP): WI-38; for fold induction at 10 µM: Homo sapiens; for K = Sestrin induction: score
Summary of the method: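 FOXO3 target-gene expression quantified by qPCR normalised to B2M, PPIA and GAPDH, in WI-38 cells after 24 h exposure to 10 μM compound. Some runs used cells first transfected 36 h with 10 nM FOXO3 or NRF2 siRNA and replated ~24 h before dosing.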

WI-38 cells = assay: Propidium iodide (PI) cell-death imaging upon H2O2 stress; settings: for Assay 7: H2O2-resistant, at 10 uM, validated by propidium iodide (PI) cell-death imaging: w/H2O2, 3 hrs/4 hrs/5 hrs, YES/NO; for cytotoxicity at 10 µM: Homo sapiens, WI-38
[1] = 10 uM, YES = resistance reduced by at least 50%, partial = 25% to 50%
[2] = 24 h, Assay 10(m), at 10 uM, qPCR, read-out: Induction of FOXO3-regulated genes: GADD45A normalized fold-change
[3] = 24 h, Assay 10(m), at 10 uM, qPCR, read-out: Induction of FOXO3-regulated genes: TXNIP normalized fold-change
[4] = 10 μM, 24 hrs, WI-38 cells, qPCR, normalized to B2M, n = 4, read-out: GADD45A expression, normalized fold change (FOXO3-regulated gene)
[5] = 10 μM, 24 hrs, WI-38 cells, qPCR, normalized to B2M, n = 4, read-out: TXNIP expression, normalized fold change (FOXO3-regulated gene)
[6] = WI-38 cells, 10 μM, 24 hrs, n=4, qPCR normalized by B2M, read-out: DDB1 Normalized fold change
[7] = WI-38 cells, 10 μM, 24 hrs, n=4, qPCR normalized by B2M, read-out: GADD45A Normalized fold change
[8] = WI-38 cells, 10 μM, 24 hrs, n=4, qPCR normalized by B2M, read-out: SESN1 Normalized fold change
[9] = fold change, qPCR, WI-38 cells, 10 μM, 24 hrs, read-out: Summary of effects on FOXO3-regulated genes: GADD45A
[10] = fold change, qPCR, WI-38 cells, 10 μM, 24 hrs, read-out: Summary of effects on FOXO3-regulated genes: TXNIP
[11] = qPCR, WI-38 cells, 10 μM, n=4, 24 hrs, normalized by B2M, read-out: CAT Normalized fold change
[12] = qPCR, WI-38 cells, 10 μM, n=4, 24 hrs, normalized by B2M, read-out: SOD2 Normalized fold change
[13] = qPCR, WI-38 cells, 10 μM, n=4, 24 hrs, normalized by B2M, read-out: TXNIP Normalized fold change
[14] = H2O2 3 hrs, 10 uM, n = 6, negative control 5.44% ± 0.79%, read-out: Percentage of propidium iodide-positive dead cells (under H2O2 stress treatment), 3 hrs
[15] = H2O2 4 hrs, 10 uM, n = 6, negative control 16.81% ± 1.42%, read-out: Percentage of propidium iodide-positive dead cells (under H2O2 stress treatment), 4 hrs
[16] = H2O2 5 hrs, 10 uM, n = 6, negative control 22.50% ± 1.53%, read-out: Percentage of propidium iodide-positive dead cells (under H2O2 stress treatment), 5 hrs
[17] = pre-treatment at 10 uM, 3.5 hours of H2O2, DMSO control 27.4% ± 6.5%, */**/*** = reduced by one/two/three standard deviations, read-out: Percentage of propidium iodide-positive dead cells (under H2O2 stress treatment), at 10 uM

Row | Structure (SMILES) | G = mTOR down-regulation (mTOR; 2-point score) | G = mTOR down-regulation (mTOR; summary score) | NRF2-dependency for H2O2-resistance, at 10 uM - with H2O2, 1st experiment (NRF2; 10 uM) | NRF2-dependency for H2O2-resistance, at 10 uM - with H2O2, 2nd experiment (NRF2; 10 uM) | NRF2-dependency for H2O2-resistance, 1st experiment (NRF2; [1]) | NRF2-dependency for H2O2-resistance, 2nd experiment (NRF2; [1]) | Assay 17: NRF2-dependency for H2O2-resistance (NRF2; 10 uM) | NRF2-dependency of H2O2-resistance (NRF2 siRNA knockdown) (NRF2) | J = NRF2-dependency for H2O2-resistance (NRF2; score) | J = NRF2-dependency for H2O2-resistance (NRF2; summary score) | E = Potential FOXO3 Activation (FOXO3; 2-point score) | fold induction at 10 µM (FOXO3; [2]) | fold induction at 10 µM (FOXO3; [4]) | fold induction at 10 µM (FOXO3; [6]) | fold induction at 10 µM (FOXO3; [7]) | fold induction at 10 µM (FOXO3; [8]) | fold induction at 10 µM (FOXO3; [9]) | fold induction at 10 µM (FOXO3; [11]) | fold induction at 10 µM (FOXO3; [12]) | fold induction at 10 µM (FOXO3; [13]) | also measured
1 | CCCN1C/C(=C\c2ccc(F)cc2)C(=O)/C(=C/c2ccc(F)cc2)C1 [O15] | 0 | 0 | 1st, YES; | 2nd, YES. | YES; | YES. | YES | significantly attenuate | 1 | 1 | 0 | 2.72 | 2.72 | 1.17 | 2.71 | 0.679 | 2.72 | 1.28 | 1.05 | 0.219 | NRF2-dependency for H2O2-resistance, at 10 uM (experiment 3) - with & without H2O2 (NRF2; 10 uM, experiment 3, with & without H2O2): YES; NRF2-dependency for H2O2-resistance (experiment 3) (NRF2; 10 uM, with & without H2O2, NRF2 knockdown in WI-38 cells, YES = resistance reduced by at least 50%, partial = 25% to 50%): YES; Reduction of H2O2-resistance capacity upon NRF2 knockdown, on average (NRF2; 3 of 3 experiments): ~90%; Induction of at least two of five FOXO3-regulated genes (SOD2, GADD45A, CAT, DDB1, TXNIP) (FOXO3; 10 μM, 24 hrs): significant induction; also recorded: significant, induction; fold induction at 10 µM (FOXO3; 24 h, Assay 10(m), at 10 uM, qPCR, read-out: Induction of FOXO3-regulated genes: CAT normalized fold-change): 1.28; fold induction at 10 µM (FOXO3; 24 h, Assay 10(m), at 10 uM, qPCR, read-out: Induction of FOXO3-regulated genes: SESN1 normalized fold-change): 0.8; fold induction at 10 µM (FOXO3; [3]): 0.22; fold induction at 10 µM (FOXO3; 10 μM, 24 hrs, WI-38 cells, qPCR, normalized to B2M, n = 4, read-out: CAT expression, normalized fold change (FOXO3-regulated gene)): 1.28; fold induction at 10 µM (FOXO3; 10 μM, 24 hrs, WI-38 cells, qPCR, normalized to B2M, n = 4, read-out: SESN1 expression, normalized fold change (FOXO3-regulated gene)): 0.8; fold induction at 10 µM (FOXO3; [5]): 0.22; fold induction at 10 µM (FOXO3; fold change, qPCR, WI-38 cells, 10 μM, 24 hrs, read-out: Summary of effects on FOXO3-regulated genes: CAT): 1.28; fold induction at 10 µM (FOXO3; fold change, qPCR, WI-38 cells, 10 μM, 24 hrs, read-out: Summary of effects on FOXO3-regulated genes: SESN1): 0.8; fold induction at 10 µM (FOXO3; [10]): 0.22; K = Sestrin induction (FOXO3): 0; E = Potential FOXO3 Activation (FOXO3; summary score): 0; Assay 7: H2O2-resistant, at 10 uM, validated by propidium iodide (PI) cell-death imaging (WI-38 cells; 10 uM): YES; cytotoxicity at 10 µM (WI-38 cells; [14]): 4.04%; cytotoxicity at 10 µM (WI-38 cells; [15]): 4.4%; cytotoxicity at 10 µM (WI-38 cells; [16]): 6.06%; cytotoxicity at 10 µM (WI-38 cells; [17]): 6.8%
2 | COc1cccc(/C=C2\CN(C)C/C(=C\c3cccc(OC)c3OC)C2=O)c1OC [O23] | 0 | 0 | 1st, YES; | 2nd, YES. | YES; | YES. | YES | significantly attenuate | 1 | 1 | 2 | 7.22 | 7.22 | 1.26 | 7.22 | 0.799 | 7.22 | 0.89 | 2.04 | 0.071 | Survival of NRF2 siRNA-transfected cells in the absence of H2O2 (NRF2): could reduce the survival; viability of non-stressed cells, reduced by (NRF2; human, 24 h, 10 uM): by 40%); Induction of at least two of five FOXO3-regulated genes (SOD2, GADD45A, CAT, DDB1, TXNIP) (FOXO3; 10 μM, 24 hrs): induce FOXO3-regulated genes; SOD2 expression, normalized fold change (FOXO3-regulated gene) (FOXO3; 10 μM, 24 hrs, WI-38 cells, qPCR, normalized to B2M, n = 4): SOD2 2.04 fold; Potential FOXO3 Activation (>=2 target genes induced, by >=1.5-fold) (FOXO3; Assay 11(n)): YES; fold induction at 10 µM (FOXO3; 24 h, Assay 10(m), at 10 uM, qPCR, read-out: Induction of FOXO3-regulated genes: SOD2 normalized fold-change): 2.04; fold induction at 10 µM (FOXO3; [3]): 0.07; fold induction at 10 µM (FOXO3; [5]): 0.07; fold induction at 10 µM (FOXO3; [10]): 0.07; Summary of effects on FOXO3-regulated genes: SOD2 (FOXO3; fold change, qPCR, WI-38 cells, 10 μM, 24 hrs): SOD2 2.04; K = Sestrin induction (FOXO3): 0; E = Potential FOXO3 Activation (FOXO3; summary score): 2; Assay 7: H2O2-resistant, at 10 uM, validated by propidium iodide (PI) cell-death imaging (WI-38 cells; 10 uM): YES; cytotoxicity at 10 µM (WI-38 cells; [14]): 5.65%; cytotoxicity at 10 µM (WI-38 cells; [15]): 4.76%; cytotoxicity at 10 µM (WI-38 cells; [16]): 8%; cytotoxicity at 10 µM (WI-38 cells; [17]): 10.2%
3 | CC(C)(C)c1ccc(OCC(=O)Nc2ccc3c4c(cccc24)C(=O)NC3=O)cc1 [O22] | 0 | 0 | 1st, partial; | 2nd, partial. | partial; | partial. | YES | significantly attenuate | 1 | 1 | 0 | 1.23 | 1.23 | 1.04 | 1.23 | 1.29 | 1.23 | 1.04 | 1.02 | 0.742 | K = Sestrin induction (FOXO3): 0; E = Potential FOXO3 Activation (FOXO3; summary score): 0; Assay 7: H2O2-resistant, at 10 uM, validated by propidium iodide (PI) cell-death imaging (WI-38 cells; 10 uM): YES; cytotoxicity at 10 µM (WI-38 cells; [14]): 4.84%; cytotoxicity at 10 µM (WI-38 cells; [17]): 4.1%
